Laboratory results as given in patent US20220339233A1, “COMPOSITIONS AND METHODS FOR PREVENTING RECURRENCE OF CANCER” (YALE UNIVERSITY, priority 2019, published 2022).

Key:
[1] = LC-MS detection of YIV-906 compounds of Hepa 1-6 tumor; design: species or system mice; conditions: mouse, in vivo; for detection in the tumor mass: po
Method: (§1) FIGS. 12A-12C show the effects of various YIV-906 formulations on M1/M2 mRNA expression. […] Raw cells were cultured in the presence of murine M-CSF (10 ng/mL) for 3 days, and then cultured in presence with IFNγ 10 ng/mL alone or with YIV-906GU/its components to induce polarization to M1-like macrophage for 24 h. The mRNA expression was determined by RT-qPCR following treatment at day 8. FIG. 12C illustrates the detection of YIV-906 compounds of Hepa 1-6 tumor following oral administration of YIV-906 with or without Anti-PD1 using LC-MS as described herein.
Each tumor sample were homogenized in 200 μL acetronitrile/methanol/water(2/2/1, v/v/v) and 1 mm glass beads (BioSpec Products, Bartlesville, Okla.) for 30 s at 3500 rpm twice. The homogenate was then centrifuged at 12000 rpm for 15 min at 4° C. The supernatant was dried down in a Speedvac. The residue of each tumor sample was re-dissolved in 100 μL of acetonitrile, and vortexed at 3000 rpm for 3 min. The solution was then centrifuged at 12000 rpm at 4° C. for 15 min, and 2 μL supernatant was injected into the UPLC-QTOF system for analysis. All sample analyses were performed on an ACQUITY ultra-performance liquid chromatography (UPLC) system coupled with a quadrupole-time of flight (Q-TOF) MS instrument (UPLC Xevo G2-XS QTOF MS, Waters Corp., Milford, Mass., USA) with an electrospray ionization (ESI) source. Separation was carried out on a Waters ACQUITY BEH C18 column (2.1 mm×100 mm id, 1.7 μm) with a guard column (Waters ACQUITY BEH C18 column (2.1 mm×5 mm id, 1.7 μm)).
The mobile phase consisted of acetonitrile (A) and water containing 0.1% formic acid (B) using a gradient elution of 5% A at 0-2 min, 5-10% A at 2-3 min, 10-17% A at 3-10 min, 17-30% A at 10-15 min, 30-40% A at 15-20 min, 40-80% A at 20-25 min, 80% A at 25-30 min, 80-5% A at 30-31 min, and 5% A at 31-35 min. The flow rate was 0.3 mL/min. Mass spectrometry was performed on a Water Xevo G2-XS QTOF. The scan range was from 50 to 1000 Da. For the negative electrospray mode, the capillary voltage and cone voltage were set at 2.5 kV and 60 V, respectively. […]

Raw cells = experiment: iNOS/Arg mRNA expression of macrophage with IFNγ (RT-qPCR); type: cell-based; conditions: in the presence of IFNγ 10 ng/mL; GU treated
Method: as §1
Total RNA was extracted with TRIzol reagent (Invitrogen, California, USA). The aqueous phase was collected and then one volume of ethanol was added, following the manufacturer's instructions. Before centrifuging, this slurry was added to a column (miRNeasy, Qiagen, Venlo, Limburg) for further extraction and simultaneous DNA digestion (RNase-Free DNAse set, Qiagen). cDNA was synthesized using random primers and reverse transcriptase MMLV (New England Biolabs, Ipswich, MA). qPCR assays were performed using iTaq™ SYBR® Green Supermix and the CFX96 Real-Time PCR Detection System (Bio-Rad Laboratories, Hercules, Calif.).

mouse IDO = target: T1, mouse IDO (Mus musculus, UniProt P28776); experiment: IDO activity of IDO transfected HEK293 cells; type: cell-based; conditions: L-tryptophan 125 μM, 24 hr, kynurenine in medium
T1 construct: expressed in transfected cells; host or cells: HEK293
T1 sequence (P28776 whole entry): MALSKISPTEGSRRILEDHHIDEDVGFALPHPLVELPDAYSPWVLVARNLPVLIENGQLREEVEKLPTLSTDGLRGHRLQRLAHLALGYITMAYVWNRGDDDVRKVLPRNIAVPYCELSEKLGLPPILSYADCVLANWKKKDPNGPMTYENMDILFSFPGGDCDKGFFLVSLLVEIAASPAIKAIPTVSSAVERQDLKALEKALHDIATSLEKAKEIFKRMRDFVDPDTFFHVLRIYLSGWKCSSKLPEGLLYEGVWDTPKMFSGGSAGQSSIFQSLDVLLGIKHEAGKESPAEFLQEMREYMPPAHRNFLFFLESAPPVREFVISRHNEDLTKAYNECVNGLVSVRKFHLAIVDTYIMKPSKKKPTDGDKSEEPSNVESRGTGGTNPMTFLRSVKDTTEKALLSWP
Method: HEK293 cells were transfected with mouse IDO expression plasmids and then seeded for culturing overnight. L-tryptophan 125 μM with or without YIV906, YIV906GU or its flavonoids were added to the wells for 24 hr. The concentration of kynurenine of culture medium was measured using colorimetric based assay. Results were normalized to protein concentration in each well.
2×10^6 HEK293 cells were transfected with mouse IDO (2 μg/10 cm plate) for 48 h. For one plate, 1 mL PBS was used to collect cells into a 2 ml tube. Cells were centrifuged at 3,500 rpm 1 min. Cells were then sonicated in ice cold PB buffer (1 mL, pH 6.5). Cell lysis was clarified by centrifuging at 12,000 rpm for 5 min at 4° C. 25 μL cell lysis solution was mixed with YIV906 or YIV906GU (25 μL) at desired concentrations. Reaction buffer containing 50 μL PB buffer (100 mM, pH 6.5), 10 μL methylene blue (2.5%), 100 μL catalase (20 mg/mL), 250 μL L-tryptophan (500 mM) and, for every 10 mL of total solution, 70 mg of vitamin C. The reaction buffer was then added to the cell lysis solution. The solution was allowed to react for 1.5 h at 37° C. Trichloroacetic acid 30% (25 μL) was added and incubated at 50° C. for 1 hr. […] Absorbance at 540 nm was measured using a UV-vis spectrometer to determine kynurenine concentration.

presence in tumors of the YIV-906 plus anti-PD1 group [1]	IDO enzyme activity in cell cultures (mouse IDO)	Compound	detection in the tumor mass [1]	IFNγ action on increasing iNOS/Arg ratio (Raw cells)
		COc1c(O)cc2oc(-c3ccccc3)cc(=O)c2c1O [oroxylin A]	detected	potentiate
did not have	most potent	O=c1cc(-c2ccccc2)oc2cc(O)c(O)c(O)c12 [baicalein]	detected	potentiate
